Results: patent publication US20250099448A1, “HETEROCYCLIC COMPOUNDS” (Hoffmann-La Roche Inc., priority 2022, published 2025)

Target: T1, MAGL protein (Homo sapiens, UniProt Q99685)
T1 sequence (Q99685 1-303): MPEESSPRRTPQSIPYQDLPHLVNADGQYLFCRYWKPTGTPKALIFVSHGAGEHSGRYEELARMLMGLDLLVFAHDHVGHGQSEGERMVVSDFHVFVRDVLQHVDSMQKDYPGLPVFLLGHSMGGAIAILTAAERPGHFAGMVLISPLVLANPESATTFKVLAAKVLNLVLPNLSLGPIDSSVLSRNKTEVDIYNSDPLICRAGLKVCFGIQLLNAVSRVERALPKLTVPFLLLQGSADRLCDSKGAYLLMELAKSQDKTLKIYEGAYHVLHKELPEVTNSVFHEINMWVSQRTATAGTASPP
Test: 2-AG assay: MAGL inhibitory activity by hydrolysis of 2-arachidonoylglycerol to arachidonic acid, followed by mass spectrometry
Assay type: biochemical
Details: 8 μM 2-arachidonoylglycerol, 15 min preincubation, 30 min reaction at RT, RapidFire MS readout
Outline: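 Activity was measured by RapidFire SPE–triple-quad MS as the ratio of arachidonic acid to d8-arachidonic acid after 2-AG hydrolysis (8 μM substrate, 30 min, RT, acetonitrile quench). Compounds, tested from 12.5 μM down to […], were first preincubated 15 min with MAGL in TRIS/EDTA/Tween-20 buffer containing 2.5% DMSO.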

`O=C(N1CC(Cc2ccc(Cl)cc2)C1)N1CC2(CC(c3nnc(C4(O)CC4)[nH]3)C2)C1` [compound 361] showed an IC50 of 45.6 nM.
For `O=C(N1CC(OCc2ccc(OC(F)(F)F)cc2)C1)N1CC2(CC(c3nnc(C4CC4)[nH]3)C2)C1` [compound 315], the IC50 was 4.93 nM.
Molecule `O=C(N1C[C@H]2CN(Cc3ccccc3)C[C@H]2C1)N1CC2(CC(c3nnc(C4CC4)[nH]3)C2)C1` [compound 363] has an IC50 of 244 nM.
With `O=C(N1CC2(CC(c3nnc(C4CC4)[nH]3)C2)C1)N1CC2(C1)CN(S(=O)(=O)c1cc(F)cc(C(F)(F)F)c1)C2` [compound 101] the IC50 was 3.7 nM.
With `Cn1nc(C2CC2)cc1CN1CC2(C1)CN(C(=O)N1CC3(CC(c4nc(C5CC5)n[nH]4)C3)C1)C2` [compound 623] the IC50 was 12.6 nM.
Molecule `O=C(N1CC(c2ccc(N3CCC(O)(C(F)(F)F)C3)nc2)C1)N1CC2(CC(c3nnc(C4CC4)[nH]3)C2)C1` (stereo not drawn) [compound 269] has an IC50 of 2.29 nM.
Molecule `N#Cc1ccc(CC2CC3(C2)CN(C(=O)N2CC4(CC(c5nc(C6COC6)n[nH]5)C4)C2)C3)c(F)c1` [compound 797] has an IC50 of 9.31 nM.
For `O=C(N1CCC(NS(=O)(=O)c2ccc(C(F)(F)F)cc2)CC1)N1CC2(CC(c3nnc(C4CC4)[nH]3)C2)C1` [compound 248], the IC50 was 676 nM.
`O=C(N1CC2(CCC(Cc3ncc(F)cc3F)CC2)C1)N1CC2(CC(c3nnc(C4CC4)[nH]3)C2)C1` [compound 142] was tested, and the IC50 was 0.84 nM.
In the case of `Cn1nc(CN2CC3(C2)CN(C(=O)N2CC4(CC(c5nc(C6CC6)n[nH]5)C4)C2)C3)cc1C(F)(F)F` [compound 681], the IC50 is reported as 7.41 nM.
With `O=C(N1CC2(CC(Cc3nnc(C4(C(F)(F)F)CC4)o3)C2)C1)N1CC2(CC(c3nc(C4CC(F)(F)C4)n[nH]3)C2)C1` [compound 738] the IC50 was 328 nM.
For `O=C(N1CC(NS(=O)(=O)C2CCC(F)(F)CC2)C1)N1CC2(CC(c3nnc(C4CC4)[nH]3)C2)C1` [compound 204], the IC50 was 1360 nM.
Molecule `O=C(N1CC2(CC(c3nnc(C4CC4)[nH]3)C2)C1)N1CC2(C1)CN(S(=O)(=O)c1cncc(C(F)(F)F)c1)C2` [compound 109] has an IC50 of 20.1 nM.
In the case of `O=C(N1CC2(CC(c3nc(C4CC4)n[nH]3)C2)C1)N1CC2(CN(Cc3ccc(=O)[nH]c3)C2)C1` [compound 541], the IC50 is reported as 1110 nM.
`O=C(N1CC2(CC(Nc3ccc(C(F)(F)F)nn3)C2)C1)N1CC2(CC(c3nnc(C4CC4)[nH]3)C2)C1` [compound 57] was tested, and the IC50 was 25.7 nM.
Molecule `O=C(N1CC2(CC(c3nc(C4CC4)n[nH]3)C2)C1)N1CC2(CN(Cc3nccn3C(F)(F)F)C2)C1` [compound 709] has an IC50 of 24.3 nM.
Molecule `O=C(N1CC2(CC(Cc3cnc(C(F)(F)F)cn3)C2)C1)N1CC2(CC(c3nc(C4CC(F)(F)C4)n[nH]3)C2)C1` [compound 465] has an IC50 of 114 nM.
`COc1ccccc1S(=O)(=O)N1CC2(CN(C(=O)N3CC4(CC(c5nnc(C6CC6)[nH]5)C4)C3)C2)C1` [compound 108] gave an IC50 of 34.1 nM.
`O=C(N1CC2(CC(c3nc(C4(O)CC4)n[nH]3)C2)C1)N1CC2(CC[C@H](Cc3cccc(S(=O)(=O)C(F)(F)F)c3)C2)C1` [compound 741] showed an IC50 of 0.15 nM.
In the case of `O=C(N1CC2(CC(c3nnc(C4CC4)[nH]3)C2)C1)N1CC2(C1)CN(S(=O)(=O)NC1(C(F)(F)F)CC1)C2` [compound 215], the IC50 is reported as 17.4 nM.
Molecule `COc1cc(Cl)ccc1CN(C)CC1CN(C(=O)N2CC3(CC(c4nnc(C5CC5)[nH]4)C3)C2)C1` [compound 894] has an IC50 of 77.5 nM.
In the case of `CP(C)(=O)c1ccc(CC2CC3(C2)CN(C(=O)N2CC4(CC(c5nnc(C6CC6)[nH]5)C4)C2)C3)cc1` [compound 926], the IC50 is reported as 6.58 nM.
`O=C(N1CC2(CC(Oc3ccc(C(F)(F)F)nc3)C2)C1)N1CC2(CC(c3nnc(C4CC4)[nH]3)C2)C1` [compound 131] showed an IC50 of 2.79 nM.
`O=C(N1CC2(CC(c3nnc(C4CC4)[nH]3)C2)C1)N1CC2(CCN(Cc3ccc(C(F)(F)F)cn3)C2)C1` [compound 182] showed an IC50 of 5.91 nM.
In the case of `CS(=O)(=O)c1ccc(CC2CC3(C2)CN(C(=O)N2CC4(CC(c5nc(C6CC(F)(F)C6)n[nH]5)C4)C2)C3)cc1` [compound 582], the IC50 is reported as 167 nM.
For `O=C(N1CC2(CC(c3nc(C4CC4)n[nH]3)C2)C1)N1CC2(CN(Cc3ccnn3CC(F)F)C2)C1` [compound 597], the IC50 was 135 nM.
In the case of `CS(=O)(=O)c1ccc(CC2CC3(C2)CN(C(=O)N2CC4(CC(c5nnc(C6(O)CC6)[nH]5)C4)C2)C3)cc1` [compound 13], the IC50 is reported as 4.72 nM.
Molecule `O=C(N1CCC(C23CC(c4nnc(C5(C(F)(F)F)CC5)o4)(C2)C3)CC1)N1CC2(CC(c3nc(C4(O)CC4)n[nH]3)C2)C1` [compound 706] has an IC50 of 280 nM.
`O=C(N1CC(c2ccc(NCC3(C(F)(F)F)CC3)nc2)C1)N1CC2(CC(c3nnc(C4CC4)[nH]3)C2)C1` [compound 253] showed an IC50 of 0.14 nM.
Molecule `CS(=O)(=O)c1cc(CC2CC3(C2)CN(C(=O)N2CC4(CC(c5nnc(C6CC6)[nH]5)C4)C2)C3)ccc1C(F)(F)F` [compound 41] has an IC50 of 0.24 nM.
Work on `CS(=O)(=O)c1cccc(CC2CC3(C2)CN(C(=O)N2CC4(CC(c5nnc(C6CCC6)[nH]5)C4)C2)C3)c1` [compound 17] yielded an IC50 of 15.2 nM.
For `NC1(c2nnc(C3CC4(C3)CN(C(=O)N3CC5(CC(Cc6ccc(F)cc6C(F)(F)F)C5)C3)C4)[nH]2)CC1` [Example 636], the IC50 was 0.03 nM.
Work on `O=C(N1CC(c2cnc(NCC3(C(F)(F)F)CC3)cn2)C1)N1CC2(CC(c3nnc(C4CC4)[nH]3)C2)C1` [compound 255] yielded an IC50 of 0.68 nM.
With `O=C(N1CC2(CCN(Cc3cccc(S(=O)(=O)C(F)(F)F)c3)CC2)C1)N1CC2(CC(c3nnc(C4CC4)[nH]3)C2)C1` [compound 180] the IC50 was 0.91 nM.
Molecule `O=C(N1CC(N(Cc2ccc(C(F)(F)F)cc2F)C2CC2)C1)N1CC2(CC(c3nnc(C4CC4)[nH]3)C2)C1` [compound 200] has an IC50 of 69.7 nM.
`N#Cc1ccc(CC2CC3(C2)CN(C(=O)N2CC4(CC(c5nc(C6CC(F)(F)C6)n[nH]5)C4)C2)C3)c(F)c1` [compound 486] was tested, and the IC50 was 10.6 nM.
Molecule `CS(=O)(=O)c1cc(CC2CC3(C2)CN(C(=O)N2CC4(CC(c5ncn[nH]5)C4)C2)C3)ccc1C(F)(F)F` [compound 753] has an IC50 of 1490 nM.
Molecule `N=[S@@](=O)(c1cccc(CC2CC3(C2)CN(C(=O)N2CC4(CC(c5nnc(C6CC6)[nH]5)C4)C2)C3)c1)C(F)(F)F` (single isomer, unassigned) [compound 127] has an IC50 of 0.06 nM.
In the case of `O=C(N1CC2(CC(c3nnc(C4CC4)[nH]3)C2)C1)N1CC2(C1)CN(c1cncc(F)c1)C2` [compound 936], the IC50 is reported as 138 nM.
For `O=C(N1CC2(CC(Oc3ccc(C(F)(F)F)nn3)C2)C1)N1CC2(CC(c3nnc(C4(O)CC4)[nH]3)C2)C1` [compound 79], the IC50 was 43.4 nM.
In the case of `O=C(N1CC(c2cnc(N3CC(C(F)(F)F)C3)nc2)C1)N1CC2(CC(c3nnc(C4CC4)[nH]3)C2)C1` [compound 263], the IC50 is reported as 8.21 nM.
`Cc1cc([C@H](C)C2CC3(C2)CN(C(=O)N2CC4(CC(c5nc(C6CC6)n[nH]5)C4)C2)C3)ncc1C(F)(F)F` [compound 967] was tested, and the IC50 was 0.18 nM.
Work on `O=C(N1CCN(Cc2ccc(C(F)(F)F)nc2)CC1)N1CC2(CC(c3nnc(C4CC4)[nH]3)C2)C1` [Example 842] yielded an IC50 of 133 nM.
For `Cc1cc(C2CC2)n(CC2CC3(C2)CN(C(=O)N2CC4(CC(c5nc(C6CC6)n[nH]5)C4)C2)C3)n1` [compound 846], the IC50 was 0.78 nM.
`N=S(=O)(c1cccc(CC2CC3(C2)CN(C(=O)N2CC4(CC(c5nc(C6(O)CC6)n[nH]5)C4)C2)C3)c1)C(F)(F)F` (stereo not drawn) [compound 639] was tested, and the IC50 was 0.21 nM.
For `O=C(N1CC2(CC(Cn3cc(C(F)(F)F)ncc3=O)C2)C1)N1CC2(CC(c3nc(C4CC4)n[nH]3)C2)C1` [compound 960], the IC50 was 5.16 nM.
Work on `N#Cc1ccc(OC2CC3(C2)CN(C(=O)N2CC4(CC(c5nc(C6CC6)n[nH]5)C4)C2)C3)cc1C(F)(F)F` [compound 605] yielded an IC50 of 0.86 nM.
Work on `O=C(N1CC(c2ccc(C3(c4nnn[nH]4)CC3)cc2)C1)N1CC2(CC(c3nnc(C4CC4)[nH]3)C2)C1` [compound 379] yielded an IC50 of 61 nM.
With `O=C(N1CC(Oc2ccc(C(F)(F)F)c(C3CC3)c2)C1)N1CC2(CC(c3nnc(C4(O)CC4)[nH]3)C2)C1` [compound 319] the IC50 was 8.04 nM.
For `O=C(N1CC2(CC(c3nc(C4CC4)n[nH]3)C2)C1)N1CC2(CC(c3nc(C4CC4)n[nH]3)C2)C1` [compound 407], the IC50 was 9.24 nM.
`O=C(N1CC2(CC(c3nc(C4CC4)n[nH]3)C2)C1)N1CC2(CN(Cc3ccn(CC(F)(F)F)c(=O)c3)C2)C1` [compound 426] was tested, and the IC50 was 274 nM.
`CS(=O)(=O)c1cc(F)ccc1C12CC(C3CN(C(=O)N4CC5(CC(c6nc(C7CC7)n[nH]6)C5)C4)C3)(C1)C2` [compound 685] showed an IC50 of 0.96 nM.
In the case of `O=C(N1CC2(CC(c3nc(C4CC4)n[nH]3)C2)C1)N1CC2(CN(Cc3cc(C(F)(F)F)ns3)C2)C1` [compound 713], the IC50 is reported as 3.42 nM.
For `CS(=O)(=O)c1cc(C2CN(C(=O)N3CC4(CC(c5nnc(C6CC6)[nH]5)C4)C3)C2)ccc1C1CCC1` [compound 297], the IC50 was 3.16 nM.
Work on `O=C(N1CC(c2ccc(N3CC[C@@H](C(F)(F)F)C3)nc2)C1)N1CC2(CC(c3nnc(C4CC4)[nH]3)C2)C1` [compound 268] yielded an IC50 of 0.35 nM.
In the case of `O=C(N1CC2(CC(c3cnc(C(F)(F)F)cn3)C2)C1)N1CC2(CC(c3nnc(C4CC4)[nH]3)C2)C1` [compound 67], the IC50 is reported as 5.86 nM.
`O=C(N1CC2(CC(c3ccc(C(F)(F)F)nc3)C2)C1)N1CC2(CC(c3nc(C4CC4)n[nH]3)C2)C1` [compound 805] was tested, and the IC50 was 4.73 nM.
`O=C(N1CC2(CC(c3nc(C4(O)CC4)n[nH]3)C2)C1)N1CC2(CC[C@@H](Cc3ccc(S(=O)(=O)C(F)(F)F)cc3)C2)C1` [compound 599] was tested, and the IC50 was 0.84 nM.
For `O=C(N1CC2(CC(c3nnc(C4CC4)[nH]3)C2)C1)N1CC2(C1)CN(S(=O)(=O)c1ccc(F)c(F)c1)C2` [compound 106], the IC50 was 20.6 nM.
`N=S(=O)(c1ccc(C(F)(F)F)cc1)C1CCC2(CC1)CN(C(=O)N1CC3(CC(c4nc(C5CC5)n[nH]4)C3)C1)C2` (stereo not drawn) [Example 429] was tested, and the IC50 was 11.8 nM.
